Laboratory results taken from paper PMC10879502, “Linking ATP and allosteric sites to achieve superadditive binding with bivalent EGFR kinase inhibitors” (Communications Chemistry, 2024).

Experiments:
Test in all cases: KINOMEscan
Type in all cases: binding
Conditions in all cases: 1 μM
[1] = biological target: SgK110 (Homo sapiens, UniProt P0C264)
[2] = biological target: T1, JAK1(JH2domain-pseudokinase) (Homo sapiens, UniProt P23458)
T1 construct: JAK1(JH2domain-pseudokinase); purchased Eurofins DiscoverX (KINOMEscan)

[3] = biological target: T2, CSNK1G1 (Homo sapiens, UniProt Q9HCP0)
T2 construct: purchased Eurofins DiscoverX Corporation

[4] = biological target: T3, GAK (Homo sapiens, UniProt O14976)
T3 construct: purchased Eurofins DiscoverX Corporation

[5] = biological target: T4, BRSK1 (Homo sapiens, UniProt Q8TDC3)
T4 construct: purchased Eurofins DiscoverX Corporation (KINOMEscan)

[6] = biological target: T5, ABL1(T315I)-nonphosphorylated (Homo sapiens, UniProt P00519, T315I)
T5 construct: purchased Eurofins DiscoverX Corporation

[7] = biological target: T6, CAMK2D (Homo sapiens, UniProt Q13557)
T6 construct: purchased Eurofins DiscoverX Corporation (KINOMEscan)

[8] = biological target: ASK2 (Homo sapiens, UniProt O95382)
[9] = biological target: T7, DYRK1B (Homo sapiens, UniProt Q9Y463)
T7 construct: purchased Eurofins DiscoverX Corporation

[10] = biological target: CDKL3 (Homo sapiens, UniProt Q8IVW4)
[11] = biological target: EGFR(L747-S752del+P753S) (Homo sapiens, UniProt P00533, DEL747-752/P753S)
[12] = biological target: EPHA6 (Homo sapiens, UniProt Q9UF33)
[13] = biological target: AKT3 (Homo sapiens, UniProt Q9Y243)
[14] = system: FLT3(ITD+F691L)
[15] = biological target: T8, NEK11 (Homo sapiens, UniProt Q8NG66)
T8 construct: purchased Eurofins DiscoverX Corporation

[16] = biological target: PIK3CA(E542K) (Homo sapiens, UniProt P42336, E542K)
[17] = system: FLT3(ITD)
[18] = biological target: T9, HUNK (Homo sapiens, UniProt P57058)
T9 construct: purchased Eurofins DiscoverX (KINOMEscan)

[19] = biological target: EPHA7 (Homo sapiens, UniProt Q15375)
[20] = biological target: CSK (Homo sapiens, UniProt P41240)
[21] = biological target: T10, BRAF (Homo sapiens, UniProt P15056)
T10 construct: purchased Eurofins DiscoverX Corporation (KINOMEscan)

[22] = biological target: PLK3 (Homo sapiens, UniProt Q9H4B4)
[23] = biological target: T11, MAP4K4 (Homo sapiens, UniProt O95819)
T11 construct: purchased Eurofins DiscoverX Corporation

[24] = biological target: T12, DCAMKL1 (Homo sapiens, UniProt O15075)
T12 construct: purchased Eurofins DiscoverX Corporation

[25] = biological target: PIK3CA(H1047Y) (Homo sapiens, UniProt P42336, H1047Y)
[26] = biological target: T13, MARK1 (Homo sapiens, UniProt Q9P0L2)
T13 construct: purchased Eurofins DiscoverX Corporation

[27] = biological target: T14, DRAK1 (Homo sapiens, UniProt Q9UEE5)
T14 construct: purchased Eurofins DiscoverX Corporation

[28] = biological target: T15, LTK (Homo sapiens, UniProt P29376)
T15 construct: purchased Eurofins DiscoverX Corporation

[29] = biological target: T16, CDC2L5 (Homo sapiens, UniProt Q14004)
T16 construct: purchased Eurofins DiscoverX Corporation (KINOMEscan)
Experimental: (§1) Figure S19 : Metabolic stability determination of 4 in human liver microsomes, compared to a negative control containing bovine serum albumin instead of liver microsomes and a positive control using verapamil instead of compound.
(§2) Table S7 : Data was obtained from KINOMEscan TM using 1 μM of compound 4 against 468 kinases. Eurofins DiscoverX Corporation (San Diego), CA 92121, USA. Results stated as percent of control (POC), where lower values are associated with lower Kd values. […]
(§3) ABL1(F317L)-nonphosphorylated 37 […]
(§4) (1 picture or pasted object on this page, not shown here)

[30] = biological target: PRP4 (Homo sapiens, UniProt Q13523)
Experimental: as §1, §2, §3, §4

[31] = biological target: T17, NEK4 (Homo sapiens, UniProt P51957)
T17 construct: purchased Eurofins DiscoverX Corporation

[32] = biological target: T18, MAP3K4 (Homo sapiens, UniProt Q9Y6R4)
T18 construct: purchased Eurofins DiscoverX Corporation

[33] = biological target: T19, CAMK1B (Homo sapiens, UniProt Q6P2M8)
T19 construct: purchased Eurofins DiscoverX Corporation (KINOMEscan)

[34] = biological target: EPHA1 (Homo sapiens, UniProt P21709)
[35] = biological target: ZAP70 (Homo sapiens, UniProt P43403)
[36] = biological target: ADCK3 (Homo sapiens, UniProt Q8NI60)
[37] = biological target: FGFR1 (Homo sapiens, UniProt P11362)
[38] = biological target: PLK2 (Homo sapiens, UniProt Q9NYY3)
[39] = biological target: T20, JNK3 (Homo sapiens, UniProt P53779)
T20 construct: purchased Eurofins DiscoverX (KINOMEscan)
T20 sequence (P53779 whole entry): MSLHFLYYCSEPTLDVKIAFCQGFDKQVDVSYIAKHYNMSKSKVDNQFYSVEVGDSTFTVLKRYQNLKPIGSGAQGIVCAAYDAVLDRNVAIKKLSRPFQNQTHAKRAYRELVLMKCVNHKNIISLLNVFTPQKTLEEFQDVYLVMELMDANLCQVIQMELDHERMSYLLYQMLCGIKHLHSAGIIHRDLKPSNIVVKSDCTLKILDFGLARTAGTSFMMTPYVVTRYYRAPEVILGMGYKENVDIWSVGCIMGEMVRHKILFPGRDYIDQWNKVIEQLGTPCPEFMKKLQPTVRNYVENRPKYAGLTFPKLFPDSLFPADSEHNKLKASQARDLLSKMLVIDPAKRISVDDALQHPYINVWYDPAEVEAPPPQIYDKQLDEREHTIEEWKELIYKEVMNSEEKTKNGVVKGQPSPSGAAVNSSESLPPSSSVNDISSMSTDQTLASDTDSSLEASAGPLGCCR

T11 sequence (O95819 whole entry): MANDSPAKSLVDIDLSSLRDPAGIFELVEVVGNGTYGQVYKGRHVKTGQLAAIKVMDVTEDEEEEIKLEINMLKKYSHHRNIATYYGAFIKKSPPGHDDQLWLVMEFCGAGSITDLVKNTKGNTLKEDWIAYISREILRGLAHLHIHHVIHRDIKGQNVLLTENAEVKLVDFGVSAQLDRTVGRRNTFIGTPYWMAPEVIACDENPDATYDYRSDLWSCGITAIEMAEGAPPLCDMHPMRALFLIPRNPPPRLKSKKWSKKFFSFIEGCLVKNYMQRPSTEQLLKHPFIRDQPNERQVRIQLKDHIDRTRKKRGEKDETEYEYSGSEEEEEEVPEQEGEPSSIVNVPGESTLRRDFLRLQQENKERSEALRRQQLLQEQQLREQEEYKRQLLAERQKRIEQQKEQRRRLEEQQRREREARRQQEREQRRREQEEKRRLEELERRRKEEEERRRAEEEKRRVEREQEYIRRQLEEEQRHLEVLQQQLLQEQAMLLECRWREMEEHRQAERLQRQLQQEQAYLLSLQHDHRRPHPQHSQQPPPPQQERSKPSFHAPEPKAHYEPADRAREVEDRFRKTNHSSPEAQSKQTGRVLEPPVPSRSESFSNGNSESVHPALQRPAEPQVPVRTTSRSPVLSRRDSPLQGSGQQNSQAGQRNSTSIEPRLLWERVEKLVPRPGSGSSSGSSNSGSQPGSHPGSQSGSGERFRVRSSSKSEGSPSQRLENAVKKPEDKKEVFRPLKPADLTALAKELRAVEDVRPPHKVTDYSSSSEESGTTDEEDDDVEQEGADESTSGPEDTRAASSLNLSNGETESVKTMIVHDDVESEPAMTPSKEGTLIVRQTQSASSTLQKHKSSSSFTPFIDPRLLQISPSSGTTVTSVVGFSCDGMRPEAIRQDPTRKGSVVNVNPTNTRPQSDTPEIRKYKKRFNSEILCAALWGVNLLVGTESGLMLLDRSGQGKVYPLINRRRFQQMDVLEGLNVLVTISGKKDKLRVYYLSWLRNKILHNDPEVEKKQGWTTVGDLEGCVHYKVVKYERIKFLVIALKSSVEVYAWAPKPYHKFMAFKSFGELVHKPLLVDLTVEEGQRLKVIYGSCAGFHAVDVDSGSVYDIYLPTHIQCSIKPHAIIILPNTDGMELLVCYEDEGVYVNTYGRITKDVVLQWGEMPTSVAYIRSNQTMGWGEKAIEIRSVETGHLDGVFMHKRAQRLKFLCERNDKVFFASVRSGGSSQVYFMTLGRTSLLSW
Sequence of ADCK3 (Q8NI60 163-647): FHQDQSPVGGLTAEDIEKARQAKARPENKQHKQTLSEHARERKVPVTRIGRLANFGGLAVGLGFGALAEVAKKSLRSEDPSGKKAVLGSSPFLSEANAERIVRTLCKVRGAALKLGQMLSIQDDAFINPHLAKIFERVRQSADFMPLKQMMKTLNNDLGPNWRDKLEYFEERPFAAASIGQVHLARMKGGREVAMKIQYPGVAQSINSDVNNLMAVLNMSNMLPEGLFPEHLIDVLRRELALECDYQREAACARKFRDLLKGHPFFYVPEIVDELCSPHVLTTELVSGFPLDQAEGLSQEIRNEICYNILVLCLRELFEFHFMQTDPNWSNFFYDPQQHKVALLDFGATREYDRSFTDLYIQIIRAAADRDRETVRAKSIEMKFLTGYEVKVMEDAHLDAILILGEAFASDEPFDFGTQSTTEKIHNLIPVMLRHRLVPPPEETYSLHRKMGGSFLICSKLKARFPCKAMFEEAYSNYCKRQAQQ
T8 sequence (Q8NG66 whole entry): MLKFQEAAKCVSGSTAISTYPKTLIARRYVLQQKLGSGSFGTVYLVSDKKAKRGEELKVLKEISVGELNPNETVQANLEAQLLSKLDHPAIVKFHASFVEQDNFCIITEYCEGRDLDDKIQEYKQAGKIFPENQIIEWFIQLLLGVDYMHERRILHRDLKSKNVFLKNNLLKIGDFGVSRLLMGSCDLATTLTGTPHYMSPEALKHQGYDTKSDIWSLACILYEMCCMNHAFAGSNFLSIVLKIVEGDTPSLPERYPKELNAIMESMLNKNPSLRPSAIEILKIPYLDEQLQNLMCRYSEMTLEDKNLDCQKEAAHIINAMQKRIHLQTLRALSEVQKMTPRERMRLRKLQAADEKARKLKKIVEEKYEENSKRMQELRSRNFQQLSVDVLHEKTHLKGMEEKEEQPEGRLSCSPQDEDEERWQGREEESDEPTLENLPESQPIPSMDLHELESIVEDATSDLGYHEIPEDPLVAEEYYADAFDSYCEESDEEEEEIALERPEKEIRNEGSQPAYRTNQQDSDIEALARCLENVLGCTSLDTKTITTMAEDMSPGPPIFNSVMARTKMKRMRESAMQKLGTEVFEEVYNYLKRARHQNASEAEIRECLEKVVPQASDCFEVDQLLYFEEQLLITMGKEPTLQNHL
T2 sequence (Q9HCP0 whole entry): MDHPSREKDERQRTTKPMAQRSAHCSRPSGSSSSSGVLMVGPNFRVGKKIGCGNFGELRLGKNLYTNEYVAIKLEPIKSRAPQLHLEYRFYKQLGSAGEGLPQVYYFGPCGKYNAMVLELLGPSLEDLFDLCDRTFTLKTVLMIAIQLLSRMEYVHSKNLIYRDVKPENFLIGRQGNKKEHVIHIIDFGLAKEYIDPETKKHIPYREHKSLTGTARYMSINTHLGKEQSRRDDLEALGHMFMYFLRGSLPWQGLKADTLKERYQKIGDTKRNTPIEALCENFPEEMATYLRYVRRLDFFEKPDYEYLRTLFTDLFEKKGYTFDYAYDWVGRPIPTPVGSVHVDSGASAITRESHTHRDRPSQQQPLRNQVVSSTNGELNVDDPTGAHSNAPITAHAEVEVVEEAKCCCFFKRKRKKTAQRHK
T15 sequence (P29376 17-864): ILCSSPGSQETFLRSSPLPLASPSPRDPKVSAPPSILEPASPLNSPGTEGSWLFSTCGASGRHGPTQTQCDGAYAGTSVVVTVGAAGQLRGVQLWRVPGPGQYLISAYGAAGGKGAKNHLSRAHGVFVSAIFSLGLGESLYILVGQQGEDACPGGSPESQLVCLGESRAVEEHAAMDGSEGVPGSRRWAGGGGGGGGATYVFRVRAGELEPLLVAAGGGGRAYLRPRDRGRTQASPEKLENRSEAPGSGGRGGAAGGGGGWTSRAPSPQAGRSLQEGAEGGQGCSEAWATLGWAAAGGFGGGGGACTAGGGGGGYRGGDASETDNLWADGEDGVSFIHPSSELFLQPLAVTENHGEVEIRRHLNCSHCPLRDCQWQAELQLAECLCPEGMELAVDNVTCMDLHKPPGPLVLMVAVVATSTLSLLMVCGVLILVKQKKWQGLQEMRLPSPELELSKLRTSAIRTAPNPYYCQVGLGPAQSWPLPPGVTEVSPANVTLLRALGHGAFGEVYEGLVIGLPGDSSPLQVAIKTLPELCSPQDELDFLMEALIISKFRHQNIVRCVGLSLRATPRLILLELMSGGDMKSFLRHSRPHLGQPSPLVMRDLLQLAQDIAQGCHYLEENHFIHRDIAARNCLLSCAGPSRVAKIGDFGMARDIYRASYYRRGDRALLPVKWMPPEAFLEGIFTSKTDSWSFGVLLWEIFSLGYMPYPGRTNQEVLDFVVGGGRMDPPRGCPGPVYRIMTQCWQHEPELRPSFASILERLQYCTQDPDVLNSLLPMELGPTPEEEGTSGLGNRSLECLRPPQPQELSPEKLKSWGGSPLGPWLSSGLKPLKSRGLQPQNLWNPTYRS
T13 sequence (Q9P0L2 whole entry): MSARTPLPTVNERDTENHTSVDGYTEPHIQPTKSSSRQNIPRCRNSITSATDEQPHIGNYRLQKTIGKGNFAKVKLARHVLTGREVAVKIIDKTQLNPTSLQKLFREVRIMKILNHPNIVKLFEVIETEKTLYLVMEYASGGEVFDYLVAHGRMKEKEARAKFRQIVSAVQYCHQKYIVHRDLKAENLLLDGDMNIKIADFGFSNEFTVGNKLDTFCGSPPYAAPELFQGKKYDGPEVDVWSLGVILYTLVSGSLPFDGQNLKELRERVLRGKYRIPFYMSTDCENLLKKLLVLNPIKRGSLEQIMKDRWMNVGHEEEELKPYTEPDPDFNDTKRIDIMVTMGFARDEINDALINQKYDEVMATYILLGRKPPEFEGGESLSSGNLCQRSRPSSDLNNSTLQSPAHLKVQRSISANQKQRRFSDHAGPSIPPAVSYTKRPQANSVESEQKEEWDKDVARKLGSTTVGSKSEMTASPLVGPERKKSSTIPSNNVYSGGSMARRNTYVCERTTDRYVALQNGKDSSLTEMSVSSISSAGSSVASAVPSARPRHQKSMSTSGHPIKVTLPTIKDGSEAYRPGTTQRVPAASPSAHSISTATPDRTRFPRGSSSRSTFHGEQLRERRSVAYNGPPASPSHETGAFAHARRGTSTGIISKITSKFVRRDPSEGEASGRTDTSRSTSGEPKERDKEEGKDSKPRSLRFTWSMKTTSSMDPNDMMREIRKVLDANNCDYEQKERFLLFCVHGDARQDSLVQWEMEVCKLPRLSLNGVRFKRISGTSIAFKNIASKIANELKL

## C=CC(=O)Nc1ccc(OC)c(Nc2cc(-c3[nH]c(CC)nc3-c3cccc(NC(=O)c4cccc5c4NC(=O)c4ccccc4N5)c3)ccn2)c1 [Compound 4]
[1]
  POC: 100% of control
[2]
  POC: 83% of control
[3]
  POC: 93% of control
[4]
  POC: 16% of control
[5]
  POC: 100% of control
[6]
  POC: 98% of control
[7]
  POC: 88% of control
[8]
  POC: 100% of control
[9]
  POC: 88% of control
[10]
  POC: 100% of control
[11]
  POC: 16% of control
[12]
  POC: 90% of control
[13]
  POC: 100% of control
[14]
  POC: 79% of control
[15]
  POC: 100% of control
[16]
  POC: 100% of control
[17]
  POC: 100% of control
[18]
  POC: 32% of control
[19]
  POC: 100% of control
[20]
  POC: 14% of control
[21]
  POC: 90% of control
[22]
  POC: 87% of control
[23]
  POC: 6.1% of control
[24]
  POC: 100% of control
[25]
  POC: 66% of control
[26]
  POC: 92% of control
[27]
  POC: 84% of control
[28]
  POC: 48% of control
[29]
  POC: 74% of control
[30]
  POC: 46% of control
[31]
  POC: 100% of control
[32]
  POC: 100% of control
[33]
  POC: 94% of control
[34]
  POC: 100% of control
[35]
  POC: 97% of control
[36]
  POC: 100% of control
[37]
  POC: 86% of control
[38]
  POC: 100% of control
[39]
  POC: 53% of control
